Each structure is given as a SMILES string. Converted amounts (≈) assume the structure as drawn. Residues, ends and D or L forms follow the SMILES beside them.

Experimental findings from ChEMBL document CHEMBL1128044, “Dichotomin A, a new cyclic hexapeptide from Stellaria dichotoma L. var. lanceolata Bge” (Bioorg Med Chem Lett, 1995) are described below.

The test system of this experiment is P388. In words: Tested for inhibitory activity against p-388 lymphocytic leukemia cells. Type of experiment: functional, cell-based. Conditions: Mus musculus.

Usually IC50 stands for the concentration needed to halve the response being measured. Read a low IC50 as greater potency in that assay. Consider `CC(C)C[C@@H]1NC(=O)[C@H](Cc2ccccc2)NC(=O)[C@H]([C@@H](C)O)NC(=O)CNC(=O)[C@H](C(C)C)NC(=O)[C@H](Cc2ccc(O)cc2)NC1=O` (HELM PEPTIDE1{F.L.Y.V.G.T}$PEPTIDE1,PEPTIDE1,1:R1-6:R2$$$V2.0), for which the IC50 came out at 2.5 µg/mL (≈ 3.67 µM).
